System: K98450-129-R-PDC multicell spheroids, viability
Assay: Anticancer human tumor K98450-129-R-PDC patient-derived colon adenocarcinoma cell line growth inhibition [PI3K]
Settings: for IC50: curve of first compound; for viability, T/C: stronger effect = lower value
From the text: Combinatorial screen of targeted agents with the PI3K inhibitors inavolisib, alpelisib, duvelisib, and copanlisib in multi-cell type tumor spheroids
A high-throughput screen of multi-cell type tumor spheroids was designed to identify active combinations of targeted small molecules and PI3K pathway inhibitors. Complex spheroids include a stromal component modeled by human endothelial cells (HUVEC) and fibroblasts modeled by human mesenchymal stem cells (MSCs). The concentration ranges selected for each drug and investigational agent were based upon clinically achievable concentrations if the clinical Cmax of the agent was known.
Compounds. The drugs and investigational agents: inavolisib (NSC800729), alpelisib (NSC765974), duvelisib (NSC772469), copanlisib (NSC816437), ipatasertib (NSC767898), afuresertib (NSC778305), talazoparib (NSC767125), sapanisertib (NSC764658), selumetinib (NSC741078), tovorafenib (DAY101, NSC766906), vemurafenib (NSC761431), ravoxertinib (NSC781343), sotorasib (NSC818433), MRTX1133 (NSC 836407), abemaciclib (NSC 768073), palbociclib (NSC758247), venetoclax (NSC 766270), SY5609 (NSC837396), enzalutamide (NSC755605), and darolutamide (NSC825331), were obtained from the National Cancer Institute (NCI) Developmental Therapeutics Program Chemical Repository. The FDA-approved anticancer drug set is available from the NCI Developmental Therapeutics Program. […] The stock solutions were prepared in dimethyl sulfoxide (DMSO, Sigma-Aldrich, St. Louis, MO, cat. D2650) at 800-fold the tested concentration and stored at -70 degrees C prior to their use. All drugs and investigational agents were tested over a range starting from a high concentration at or near the clinical Cmax and decreasing in half-log increments. If the clinical Cmax for an agent had not been determined, the highest concentration tested was 10 microM.
Cell Culture. All cells were maintained in an incubator at 37 degrees C and 5% CO2 with 95% humidity. The PDC lines were cultured according to standard operating procedures established by the NCI PDMR (https://pdmr.cancer.gov/sops/default.htm). All PDCs were thawed and cultured in Matrigel-coated flasks prepared with a working solution of 1X Ham's F-12 nutrient mix, without supplementation (Invitrogen, Waltham, MA, cat. 11765054), 100 U/mL penicillin-streptomycin (Invitrogen, cat. 15140122), and 2.5% Matrigel (Corning Inc., Corning, NY, cat. 354248) for the first three passages. The 354836-022-R-J1-PDC, 475296-252-R-J1-PDC, and 997726-040-R-J2-PDC lines were cultured in 6A media, which includes advanced DMEM/F-12 (Thermo Fisher Scientific, cat. 12634028), 10 mM HEPES (Thermo Fisher Scientific, cat. 15630080), 1X GlutaMAX supplement (Thermo Fisher Scientific, cat. 35050061), 0.1 mg/mL primocin (InvivoGen, San Diego, CA, cat. ant-pm-2), 10% defined fetal bovine serum, heat inactivated (HyClone Laboratories Inc., Logan, UT, cat. SH30070.03HI), 50% L-WRN conditioned media (ATCC, cat. CRL-3276), 1.25 mM N-Acetyl-L-cysteine (Sigma-Aldrich, cat. A9165), 10 mM nicotinamide (Sigma-Aldrich, cat. N0636), 1X B-27 supplement (Thermo Fisher Scientific, cat. 17504044), 1X N-2 supplement (Thermo Fisher Scientific, cat. 17502048), and 10 microM Y-27632 dihydrochloride (Tocris Bioscience, Bristol, United Kingdom, cat. 1254). The 624824-186-R-J2-PDC line was cultured in 6C/Colon 1B media, which includes all 6A media components plus 50 ng/mL human EGF recombinant protein (Thermo Fisher Scientific, cat. PHG0311). […]

[1] = second compound 0.00316 µM, first compound 0.0316 µM
[2] = second compound 0.00316 µM, first compound 0.1 µM
[3] = second compound 0.01 µM, first compound 0.0316 µM
[4] = second compound 0.01 µM, first compound 0.1 µM
[5] = second compound 0.0316 µM, first compound 0.0316 µM
[6] = second compound 0.0316 µM, first compound 0.1 µM
[7] = second compound 0.1 µM, first compound 0.0316 µM
[8] = second compound 0.1 µM, first compound 0.1 µM
[9] = second compound 0.316 µM, first compound 0.0316 µM
[10] = second compound 0.316 µM, first compound 0.1 µM
[11] = second compound 1 µM, first compound 0.0316 µM
[12] = second compound 1 µM, first compound 0.1 µM
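Also: spheroids exposed to agents for seven days before read-out.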

SMILES: C[C@@H](NC(=O)c1ncnc(N)c1Cl)c1ncc(C(=O)Nc2cc(C(F)(F)F)c(Cl)cn2)s1 + CC(Nc1ccc2c(c1)OCCn1cc(N3C(=O)OCC3C(F)F)nc1-2)C(N)=O
- IC50 (second compound 0.00316 µM): > 10 µM
- IC50 (second compound 0.01 µM): > 10 µM
- IC50 (second compound 0.0316 µM): > 10 µM
- IC50 (second compound 0.1 µM): > 10 µM
- IC50 (second compound 0.316 µM): > 10 µM
- IC50 (second compound 1 µM): > 10 µM
- viability, T/C [1]: 111%
- viability, T/C [2]: 109%
- viability, T/C (second compound 0.00316 µM, first compound 0.316 µM): 118%
- viability, T/C (second compound 0.00316 µM, first compound 1 µM): 114%
- viability, T/C (second compound 0.00316 µM, first compound 3.16 µM): 118%
- viability, T/C (second compound 0.00316 µM, first compound 10 µM): 111%
- viability, T/C [3]: 115%
- viability, T/C [4]: 108%
- viability, T/C (second compound 0.01 µM, first compound 0.316 µM): 116%
- viability, T/C (second compound 0.01 µM, first compound 1 µM): 115%
- viability, T/C (second compound 0.01 µM, first compound 3.16 µM): 118%
- viability, T/C (second compound 0.01 µM, first compound 10 µM): 116%
- viability, T/C [5]: 105%
- viability, T/C [6]: 102%
- viability, T/C (second compound 0.0316 µM, first compound 0.316 µM): 108%
- viability, T/C (second compound 0.0316 µM, first compound 1 µM): 121%
- viability, T/C (second compound 0.0316 µM, first compound 3.16 µM): 122%
- viability, T/C (second compound 0.0316 µM, first compound 10 µM): 104%
- viability, T/C [7]: 96.7%
- viability, T/C [8]: 105%
- viability, T/C (second compound 0.1 µM, first compound 0.316 µM): 107%
- viability, T/C (second compound 0.1 µM, first compound 1 µM): 110%
- viability, T/C (second compound 0.1 µM, first compound 3.16 µM): 125%
- viability, T/C (second compound 0.1 µM, first compound 10 µM): 107%
- viability, T/C [9]: 97%
- viability, T/C [10]: 109%
- viability, T/C (second compound 0.316 µM, first compound 0.316 µM): 113%
- viability, T/C (second compound 0.316 µM, first compound 1 µM): 111%
- viability, T/C (second compound 0.316 µM, first compound 3.16 µM): 120%
- viability, T/C (second compound 0.316 µM, first compound 10 µM): 101%
- viability, T/C [11]: 86%
- viability, T/C [12]: 94.4%
- viability, T/C (second compound 1 µM, first compound 0.316 µM): 102%
- viability, T/C (second compound 1 µM, first compound 1 µM): 104%
- viability, T/C (second compound 1 µM, first compound 3.16 µM): 115%
- viability, T/C (second compound 1 µM, first compound 10 µM): 90.7%

SMILES: Cn1ncnc1[C@H]1c2n[nH]c(=O)c3cc(F)cc(c23)N[C@@H]1c1ccc(F)cc1 + CC(Nc1ccc2c(c1)OCCn1cc(N3C(=O)OCC3C(F)F)nc1-2)C(N)=O
- IC50 (second compound 0.00316 µM): > 0.1 µM
- IC50 (second compound 0.01 µM): > 0.1 µM
- IC50 (second compound 0.0316 µM): > 0.1 µM
- IC50 (second compound 0.1 µM): > 0.1 µM
- IC50 (second compound 0.316 µM): > 0.1 µM
- IC50 (second compound 1 µM): > 0.1 µM
- viability, T/C (second compound 0.00316 µM, first compound 0.000316 µM): 112%
- viability, T/C (second compound 0.00316 µM, first compound 0.001 µM): 92.8%
- viability, T/C (second compound 0.00316 µM, first compound 0.00316 µM): 100%
- viability, T/C (second compound 0.00316 µM, first compound 0.01 µM): 96.5%
- viability, T/C [1]: 102%
- viability, T/C [2]: 95.4%
- viability, T/C (second compound 0.01 µM, first compound 0.000316 µM): 114%
- viability, T/C (second compound 0.01 µM, first compound 0.001 µM): 92.8%
- viability, T/C (second compound 0.01 µM, first compound 0.00316 µM): 99.2%
- viability, T/C (second compound 0.01 µM, first compound 0.01 µM): 93.8%
- viability, T/C [3]: 95.9%
- viability, T/C [4]: 94.3%
- viability, T/C (second compound 0.0316 µM, first compound 0.000316 µM): 104%
- viability, T/C (second compound 0.0316 µM, first compound 0.001 µM): 99%
- viability, T/C (second compound 0.0316 µM, first compound 0.00316 µM): 89.3%
- viability, T/C (second compound 0.0316 µM, first compound 0.01 µM): 100%
- viability, T/C [5]: 98.5%
- viability, T/C [6]: 96.9%
- viability, T/C (second compound 0.1 µM, first compound 0.000316 µM): 92%
- viability, T/C (second compound 0.1 µM, first compound 0.001 µM): 100%
- viability, T/C (second compound 0.1 µM, first compound 0.00316 µM): 99%
- viability, T/C (second compound 0.1 µM, first compound 0.01 µM): 95.1%
- viability, T/C [7]: 104%
- viability, T/C [8]: 89.8%
- viability, T/C (second compound 0.316 µM, first compound 0.000316 µM): 90.6%
- viability, T/C (second compound 0.316 µM, first compound 0.001 µM): 89.5%
- viability, T/C (second compound 0.316 µM, first compound 0.00316 µM): 96%
- viability, T/C (second compound 0.316 µM, first compound 0.01 µM): 91.6%
- viability, T/C [9]: 100%
- viability, T/C [10]: 92.6%
- viability, T/C (second compound 1 µM, first compound 0.000316 µM): 88.4%
- viability, T/C (second compound 1 µM, first compound 0.001 µM): 92.2%
- viability, T/C (second compound 1 µM, first compound 0.00316 µM): 88.8%
- viability, T/C (second compound 1 µM, first compound 0.01 µM): 88.6%
- viability, T/C [11]: 93.6%
- viability, T/C [12]: 86.9%

— PubChem BioAssay AID1963961 (Molecular Pharmacology Branch, DTP, NCI, 2024)
